Laboratory results taken from PMC4508327 (Clinical cancer research : an official journal of the …, 2015).

Key:
[1] = tested on: advanced solid tumors; experiment: Objective tumor response; format: in vivo, human
[2] = QTc interval; format: in vivo, human
[3] = tested on: patients with advanced solid tumors; experiment: Phase I safety: adverse events
[4] = in vivo
[5] = tested on: patients with advanced solid tumors; conditions: human, in vivo
[6] = preclinical; no reference given; cited from earlier work

**Q.** Which results are given for `CN(C)C1CCN(C(=O)c2ccc(NC(=O)Nc3ccc(-c4nc(N5CCOCC5)nc(N5CCOCC5)n4)cc3)cc2)CC1` [PF-05212384]?
**A.** patients with long-lasting stable disease (>6 months) ([1]; 77 treated patients): Eight; clinical benefit response (CBR) ([1]; CR, PR or SD lasting ≥6 months, overall): 13%; objective tumor response rate ([1]; overall study population, n = 77): 2.6%; partial responses (PR) ([1]; overall study population, plus one unconfirmed PR): two; association with QTc prolongation ([2]; based on the lack of a dose-effect relationship): likely not associated with QTc prolongation; patients with grade 1 QTc prolongation ([2]; human, in vivo): 5%; patients with grade 2 QTc prolongation ([2]; human, in vivo): 5%; patients with grade 3 QTc prolongation ([2]; in vivo): no patients; maximum tolerated dose (MTD) ([3]; IV once weekly, estimated by modified CRM): 154 mg; deaths on study and within 28 days of last-dose administration ([3]; seven disease progression, one colon obstruction, one pneumonia): Nine; accumulation (accumulation ratios for Cmax) ([4]; human): no accumulation; interpatient variability in Cmax and AUC ([4]; human): low to moderate; terminal T1/2, mean values ([4]; human): 33 to 41 h; Cmax and AUC versus dose [4]: appeared to increase proportionally with increasing dose; all-cause AE: anemia [5]: 18.2%; all-cause AE: asthenia [5]: 26%; all-cause AE: back pain [5]: 19.5%; all-cause AE: constipation [5]: 23.4%; all-cause AE: cough [5]: 23.4%; all-cause AE: decreased appetite [5]: 37.7%; all-cause AE: diarrhea [5]: 24.7%; all-cause AE: dyspnea [5]: 19.5%; all-cause AE: fatigue [5]: 32.5%; all-cause AE: hyperglycemia [5]: 28.6%; all-cause AE: increased ALT and AST [5]: 16.9%; all-cause AE: mucosal inflammation and stomatitis [5]: 59.7%; all-cause AE: nausea [5]: 55.8%; all-cause AE: pyrexia [5]: 23.4%; all-cause AE: rash [5]: 23.4%; all-cause AE: vomiting [5]: 35.1%; patients who discontinued due to treatment-related AEs [5]: 3.9%; treatment-related AE: decreased appetite [5]: 24.7%; treatment-related AE: fatigue [5]: 24.7%; treatment-related AE: hyperglycemia [5]: 26%; treatment-related AE: mucosal inflammation and stomatitis [5]: 58.4%; treatment-related AE: nausea [5]: 42.9%; treatment-related AE: vomiting [5]: 24.7%; recommended phase 2 dose ([5]; iv): 154 mg; effect on cardiac, central nervous system or respiratory function [6]: did not show any significant effect
